Results from patent US9346815B2, “5-chloro-2-difluoromethoxyphenyl pyrazolopyrimidine compounds, compositions and methods of use thereof” (Genentech, Inc., priority 2014, dated 2016).

Experiments:
[1] = test system: JAK1-dependent STAT6 phosphorylation downstream of IL-13 stimulation in BEAS-2B human bronchial epithelial cells; assay: JAK1 pathway assay in BEAS-2B cells (IL-13-pSTAT6, MSD); assay type: cell-based; details: read-out: IL13-pSTAT6 EC50 (uM)_BEAS-2B
How it was run: (§1)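 BEAS-2B: 1 h, complete growth medium, 100,000 cells/well. TF-1: 30 min, serum-free OptiMEM after overnight GM-CSF starvation, 300,000 cells/well. EC50 reported.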

[2] = test system: JAK1-dependent STAT6 phosphorylation downstream of IL-13 stimulation in TF-1 human erythroleukemia cells; assay: JAK1 pathway assay in TF-1 cells (IL-13-pSTAT6, MSD); assay type: cell-based; details: Homo sapiens, TF-1, TF-1 cells, read-out: IL13-pSTAT6 EC50_TF-1
How it was run: as §1

[3] = Clearance assay: mouse intravenous (IV) clearance; assay type: in vivo; details: female BALB/c mice; for IV Mouse CL, % of liver blood flow: single IV dose of 1 mg/kg, clearance as % of mouse liver blood flow; for clearance: mouse, plasma, single IV dose of 1 mg/kg via the tail vein, read-out: IV Mouse CL
Description: In certain instances high systemic clearance of a drug substance may be of benefit. For example, in the treatment of pulmonary diseases it may be beneficial to have high drug concentrations in the lung, with lower concentrations in the bloodstream or peripheral organs. In such cases, it may be advantageous to administer a drug substance with high systemic clearance via the inhaled delivery route. This approach may maximize pharmacologic activity of the drug substance in the lung while minimizing the possibility of on-target toxicity elsewhere in the body. The functional groups appended to the 5-chloro-2-difluoromethoxyphenyl pyrazolopyrimidine scaffold affect systemic clearance.
Female BALB/c mice were obtained from Charles River Labs (Hollister, Calif. USA). Twelve animals were given a single IV dose of 1 mg/kg of compounds via the tail vein. A representative dose solution was prepared as follows: the compound was dissolved in a mixture of 5% dimethylsulfoxide (DMSO), 35% polyethylene glycol (PEG 400), and 60% water (v/v/v), respectively, and administered at a dosing volume of 5 mL/kg. Mice weighed approximately 20-25 g at the start of the study. After intravenous administration of compounds, each animal was bled twice via retro-orbital and cardiac puncture. PK time points were collected at 2 min, 5 min, 15 min, 30 min, 1 hr, 2 hr, 4 hr, and 8 hr post-dose. Plasma samples were stored at approximately −80° C. until thawed for LC-MS/MS analysis. PK data analysis was performed on mean plasma concentration-time data and PK parameters were determined by non compartmental methods using WinNonlin® Enterprise, version 5.2.1 (Pharsight Corporation; Mountain View, Calif.).

[4] = target: isolated recombinant JAK1 kinase domain (Homo sapiens (Human), UniProt P23458); assay: JAK1 enzyme assay (Caliper LabChip, peptide phosphorylation); assay type: biochemical; details: isolated recombinant JAK1 kinase domain, 25 μM ATP
[5] = target: isolated recombinant JAK2 kinase domain (Homo sapiens (Human), UniProt O60674); assay: JAK2 enzyme assay (Caliper LabChip, peptide phosphorylation); assay type: biochemical; details: 25 μM ATP
Sequence of isolated recombinant JAK2 kinase domain (O60674 849-1124): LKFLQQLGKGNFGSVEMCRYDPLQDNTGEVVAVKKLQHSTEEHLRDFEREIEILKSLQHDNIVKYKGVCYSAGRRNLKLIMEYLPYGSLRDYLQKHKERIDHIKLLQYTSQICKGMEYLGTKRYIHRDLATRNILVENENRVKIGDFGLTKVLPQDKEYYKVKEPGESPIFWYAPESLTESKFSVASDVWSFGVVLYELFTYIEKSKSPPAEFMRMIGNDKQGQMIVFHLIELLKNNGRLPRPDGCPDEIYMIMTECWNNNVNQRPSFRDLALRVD

Sequence of isolated recombinant JAK1 kinase domain (P23458 875-1153): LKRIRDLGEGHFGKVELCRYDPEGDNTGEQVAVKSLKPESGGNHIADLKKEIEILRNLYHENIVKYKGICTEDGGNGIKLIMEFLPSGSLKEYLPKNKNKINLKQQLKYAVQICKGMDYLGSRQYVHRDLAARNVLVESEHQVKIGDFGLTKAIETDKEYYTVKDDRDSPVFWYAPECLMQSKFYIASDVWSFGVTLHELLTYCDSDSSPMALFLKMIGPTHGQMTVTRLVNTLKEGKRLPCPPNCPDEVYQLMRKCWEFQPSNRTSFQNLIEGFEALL

Row | Compound | EC50 [2] [nM] | IV Mouse CL, % of liver blood flow [3] [%] | clearance [3] [mL/min/kg] | Ki [4] [nM] | Ki [5] [nM] | EC50 [1] [µM]
1 | CN(CCC#N)C1CCN(C(=O)Cn2cc(NC(=O)c3cnn4cccnc34)c(-c3cc(Cl)ccc3OC(F)F)n2)CC1 [Example 63, Pyrazolo[1,5-a]pyrimidine-3-carboxylic acid [3-(5-chloro-2-difluoromethoxy-phenyl)-1-(2-{4-[(2-cyano-ethyl)-methyl-amino]-piperidin-1-yl}-2-oxo-ethyl)-1H-pyrazol-4-yl]-amide] | 5.7 | >100 | 139 | 0.34 | 0.7 | 0.0122
2 | CN(CCc1ccccc1)C1CCN(C(=O)Cn2cc(NC(=O)c3cnn4cccnc34)c(-c3cc(Cl)ccc3OC(F)F)n2)CC1 [Example 85, N-[3-[5-chloro-2-(difluoromethoxy)phenyl]-1-[2-[4-[methyl(2-phenylethyl)amino]-1-piperidyl]-2-oxo-ethyl]pyrazol-4-yl]pyrazolo[1,5-a]pyrimidine-3-carboxamide] | 15.3 | 61 | 55 | 0.86 | 1.66 | 0.1
3 | CN(Cc1ccccc1)C1CCN(C(=O)Cn2cc(NC(=O)c3cnn4cccnc34)c(-c3cc(Cl)ccc3OC(F)F)n2)CC1 [Example 98, N-[1-[2-[4-[benzyl(methyl)amino]-1-piperidyl]-2-oxo-ethyl]-3-[5-chloro-2-(difluoromethoxy)phenyl]pyrazol-4-yl]pyrazolo[1,5-a]pyrimidine-3-carboxamide] | 3.8 | >100 | 178 | 0.79 | 1.81 | 0.0381
4 | CN1C[C@@H]2CN(C(=O)Cn3cc(NC(=O)c4cnn5cccnc45)c(-c4cc(Cl)ccc4OC(F)F)n3)C[C@@H]2C1 [Example 3, Cis-pyrazolo[1,5-a]pyrimidine-3-carboxylic acid {3-(5-chloro-2-difluoromethoxyphenyl)1-[2-(5-methylhexahydropyrrolo[3,4-c]pyrrol-2-yl)-2-oxoethyl]-1H-pyrazol-4-yl}amide] | 16.7 | >100 | 216 | 0.79 | 0.81 | 0.0324

The next lines start with results.

Row | EC50 [2] [nM] | IV Mouse CL, % of liver blood flow [3] [%] | clearance [3] [mL/min/kg] | Ki [4] [nM] | Ki [5] [nM] | Compound | EC50 [1] [µM]
5 | 10 | >100 | 153 | 0.78 | 1.43 | CCN1CCN(C(=O)Cn2cc(NC(=O)c3cnn4cccnc34)c(-c3cc(Cl)ccc3OC(F)F)n2)CC1 [Example 233, Pyrazolo[1,5-a]pyrimidine-3-carboxylic acid {3-(5-chloro-2-difluoromethoxy-phenyl)-1-[2-(4-ethyl-piperazin-1-yl)-2-oxo-ethyl]-1H-pyrazol-4-yl}-amide] | 0.0181
6 | 4.4 | 51 | 46 | 0.8 | 0.58 | CN1CCN(c2nc(-c3cc(Cl)ccc3OC(F)F)c(NC(=O)c3cnn4cccnc34)s2)CC1 [Example 205, Pyrazolo[1,5-a]pyrimidine-3-carboxylic acid [4-(5-chloro-2-difluoromethoxy-phenyl)-2-(4-methyl-piperazin-1-yl)-thiazol-5-yl]-amide] | 0.0338
7 | 2.3 | >100 | 222 | 0.33 | 0.69 | CN(CC(C)(F)F)C1CCN(C(=O)Cn2cc(NC(=O)c3cnn4cccnc34)c(-c3cc(Cl)ccc3OC(F)F)n2)CC1 [Example 134, N-[3-[5-chloro-2-(difluoromethoxy)phenyl]-1-[2-[4-[2,2-difluoropropyl(methyl)amino]-1-piperidyl]-2-oxo-ethyl]pyrazol-4-yl]pyrazolo[1,5-a]pyrimidine-3-carboxamide] | 0.0118
8 | 1.7 | >100 | 234 | 0.4 | 0.76 | CN(CC(F)(F)F)C1CCN(C(=O)Cn2cc(NC(=O)c3cnn4cccnc34)c(-c3cc(Cl)ccc3OC(F)F)n2)CC1 [Example 99, N-[3-[5-chloro-2-(difluoromethoxy)phenyl]-1-[2-[4-[methyl(2,2,2-trifluoroethyl)amino]-1-piperidyl]-2-oxo-ethyl]pyrazol-4-yl]pyrazolo[1,5-a]pyrimidine-3-carboxamide] | 0.0305
9 | 7.4 | 71 | 64 | 0.78 | 0.28 | CN(C)CC#Cc1nc(-c2cc(Cl)ccc2OC(F)F)c(NC(=O)c2cnn3cccnc23)s1 [Example 209, Pyrazolo[1,5-a]pyrimidine-3-carboxylic acid [4-(5-chloro-2-difluoromethoxy-phenyl)-2-(3-dimethylamino-prop-1-ynyl)-thiazol-5-yl]-amide] | 0.0415
10 | 6.2 | >100 | 95 | 0.89 | 0.57 | COCCNCCn1cc(NC(=O)c2cnn3cccnc23)c(-c2cc(Cl)ccc2OC(F)F)n1 [Example 294, N-[3-[5-chloro-2-(difluoromethoxy)phenyl]-1-[2-(2-methoxyethylamino)ethyl]pyrazol-4-yl]pyrazolo[1,5-a]pyrimidine-3-carboxamide] | 0.0367
